Test results reported in ChEMBL document CHEMBL3044560, “Microwave-assisted synthesis and antimicrobial activity of some imidazo[2,1-b][1,3,4]thiadiazole derivatives” (2012).
Active and inactive are the calls of the source. No cut-off for these calls is given here.

Key:
[1] = system: Candida albicans; experiment: Antimicrobial activity against Candida albicans at 50 to 70 ug/ml after 72 hr by cup-plate method; format: functional, organism-based
[2] = system: Staphylococcus aureus; experiment: Antimicrobial activity against Staphylococcus aureus at 75 ug/ml after 24 hr by cup-plate method; format: functional
[3] = system: Candida albicans; experiment: Antimicrobial activity against Candida albicans at 5 ug/ml after 72 hr by cup-plate method; format: functional; settings: read-out: IZ
[4] = system: Klebsiella; experiment: Antimicrobial activity against Klebsiella at 10 ug/ml after 24 hr by cup-plate method; format: functional; settings: read-out: IZ
[5] = system: Staphylococcus aureus; experiment: Antimicrobial activity against Staphylococcus aureus at 10 ug/ml after 24 hr by cup-plate method; settings: read-out: IZ
[6] = system: Candida albicans; experiment: Antimicrobial activity against Candida albicans at 50 ug/ml after 72 hr by cup-plate method; format: functional; settings: read-out: IZ
[7] = system: Klebsiella; experiment: Antimicrobial activity against Klebsiella at 50 ug/ml after 24 hr by cup-plate method; format: functional
[8] = system: Candida albicans; experiment: Antimicrobial activity against Candida albicans at 30 ug/ml after 72 hr by cup-plate method; format: functional; settings: read-out: IZ

`O=[N+]([O-])c1ccc(Cc2nn3cc(-c4ccc(Br)cc4)nc3s2)cc1` was tested, and the “inhibition zone (IZ)” value [1] was “inactive”, the “inhibition zone (IZ)” value [2] was “inactive” and the zone of inhibition at 5 µg/mL [3] was 14 mm.
In the case of `O=C(O)c1cn(C2CC2)c2cc(N3CCNCC3)c(F)cc2c1=O` [CIPROFLOXACIN], the zone of inhibition at 10 µg/mL [4] is reported as 28 mm and the zone of inhibition at 10 µg/mL [5] is reported as 28 mm.
For `O=[N+]([O-])c1ccc(Cc2nn3cc(-c4ccc(F)cc4)nc3s2)cc1`, the zone of inhibition at 50 µg/mL [6] was 22 mm, the “inhibition zone (IZ)” value [2] was “inactive” and the “inhibition zone (IZ)” value [7] was “inactive”.
Work on `OC(Cn1cncn1)(Cn1cncn1)c1ccc(F)cc1F` [FLUCONAZOLE] yielded a zone of inhibition at 30 µg/mL [8] of 22 mm.
